Here are results for 1 compound from ChEMBL document CHEMBL1148572, “1-((S)-2-aminopropyl)-1H-indazol-6-ol: a potent peripherally acting 5-HT2 receptor agonist with ocular hypotensive activity” (J Med Chem, 2006).

As usually defined, the Ki is a measure of affinity in units of concentration, obtained from inhibition or displacement. What is called inhibition is the relative decrease from the control value, in per cent. Usually EC50 stands for the concentration at which the effect is half-maximal.

Each structure is given as a SMILES string.

The target in series [1] is T1, 5-hydroxytryptamine receptor 1A (Homo sapiens, UniProt P08908).
T1 sequence (P08908 whole entry): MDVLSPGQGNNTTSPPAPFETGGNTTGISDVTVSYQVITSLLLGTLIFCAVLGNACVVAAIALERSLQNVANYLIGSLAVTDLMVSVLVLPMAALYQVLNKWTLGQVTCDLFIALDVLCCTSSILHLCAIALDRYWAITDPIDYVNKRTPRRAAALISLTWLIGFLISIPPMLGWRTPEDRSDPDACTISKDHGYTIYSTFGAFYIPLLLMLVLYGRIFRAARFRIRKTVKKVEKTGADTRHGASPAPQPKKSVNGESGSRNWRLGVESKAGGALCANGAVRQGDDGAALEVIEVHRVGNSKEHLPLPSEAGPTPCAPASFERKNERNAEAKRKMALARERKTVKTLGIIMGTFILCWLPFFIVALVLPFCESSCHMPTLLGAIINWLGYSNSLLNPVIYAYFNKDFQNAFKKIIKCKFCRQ
Nature of the series: Displacement of [3H]8-OH-DPAT from recombinant human 5HT1A receptor expressed in CHO cells. The format is cell-based. In general terms: Displacement assays read how much labelled ligand stays bound in the presence of the test substance.

Series [2] addresses T2, 5-hydroxytryptamine receptor 1A (Homo sapiens) (UniProt P08908).
T2 sequence (whole entry): T1 sequence (P08908 whole entry)
Nature of the series: Inhibition of forskolin activated adenylate cyclase at 10 uM. The format is functional.

Series [3] addresses T3, monoamine oxidase A (MAO-A) (Rattus norvegicus, UniProt P21396).
T3 sequence (P21396 whole entry): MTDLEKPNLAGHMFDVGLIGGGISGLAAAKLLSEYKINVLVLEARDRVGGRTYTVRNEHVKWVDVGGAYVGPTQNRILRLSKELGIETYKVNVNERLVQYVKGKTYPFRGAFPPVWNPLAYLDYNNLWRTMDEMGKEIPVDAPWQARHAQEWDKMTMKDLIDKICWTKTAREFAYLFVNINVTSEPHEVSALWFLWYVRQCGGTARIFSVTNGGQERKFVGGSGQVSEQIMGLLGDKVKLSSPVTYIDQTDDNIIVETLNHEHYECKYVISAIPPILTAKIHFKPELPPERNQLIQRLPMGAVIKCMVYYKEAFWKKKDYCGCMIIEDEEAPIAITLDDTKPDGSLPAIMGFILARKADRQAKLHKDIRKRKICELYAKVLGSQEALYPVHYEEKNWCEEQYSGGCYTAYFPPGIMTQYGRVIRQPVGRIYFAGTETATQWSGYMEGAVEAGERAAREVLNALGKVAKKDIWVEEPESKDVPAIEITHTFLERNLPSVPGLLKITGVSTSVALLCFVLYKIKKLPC
Description: Inhibition of monoamine oxidase A in rat brain at 1 nM. The format is tissue-based.

Series [4] has as its target Sigma non-opioid intracellular receptor 1 (Homo sapiens) (UniProt Q99720). Description: Inhibition of non selective binding to sigma receptor at 10 uM.
In series [5] the target is T2, 5-hydroxytryptamine receptor 1A (Homo sapiens). Nature of the series: Inhibition of forskolin activated adenylate cyclase at 1 nM. The format is functional.
For series [6], the target named is Voltage-dependent N-type calcium channel subunit alpha-1B (Homo sapiens) (UniProt Q00975). Description: Inhibitory activity at Calcium channel N type at 10 uM.
The target in series [7] is Muscarinic acetylcholine receptor (Homo sapiens) (UniProt P20309+P08173+P11229+P08172+P08912). Description: Inhibition of non selective binding to muscarinic receptor at 100 nM. Type of series: protein assay.
The target of series [8] is Leukotriene B4 receptor (Homo sapiens) (UniProt Q9NPC1+Q15722). Nature of the series: Inhibition of leukotriene B4 at 100 nM. Type of series: protein assay.
Series [9] concerns the target Protein kinase C, PKC; classical/novel (Homo sapiens) (UniProt O94806+P17252+P05129+Q05655+P05771+Q02156+P24723+Q15139+Q04759). Description: Inhibition of PDBu activated protein kinase C at 10 uM. The format is protein assay.
In series [10] the target is L-type calcium channel, dihydropyridine site (Homo sapiens, UniProt O60840+Q01668+Q13698+Q13936). Nature of the series: Inhibitory activity at dihydropyridine site of Calcium channel L type at 1 nM. Type of series: protein assay.
The target in series [11] is 5-hydroxytryptamine receptor 1D (Homo sapiens, UniProt P28221). Description: Inhibitory activity against 5HT1D receptor.
The target of series [12] is Sodium-dependent noradrenaline transporter (Homo sapiens, UniProt P23975). Description: Inhibition of NET at 10 uM.
The target of series [13] is Glutamate receptor ionotropic AMPA (Homo sapiens) (UniProt P48058+P42263+P42262+P42261). Nature of the series: Inhibition of AMPA receptor at 100 nM. The format is protein-complex assay.
For series [14], the target named is T4, Type-1 angiotensin II receptor (Homo sapiens) (UniProt P30556).
T4 sequence (whole entry): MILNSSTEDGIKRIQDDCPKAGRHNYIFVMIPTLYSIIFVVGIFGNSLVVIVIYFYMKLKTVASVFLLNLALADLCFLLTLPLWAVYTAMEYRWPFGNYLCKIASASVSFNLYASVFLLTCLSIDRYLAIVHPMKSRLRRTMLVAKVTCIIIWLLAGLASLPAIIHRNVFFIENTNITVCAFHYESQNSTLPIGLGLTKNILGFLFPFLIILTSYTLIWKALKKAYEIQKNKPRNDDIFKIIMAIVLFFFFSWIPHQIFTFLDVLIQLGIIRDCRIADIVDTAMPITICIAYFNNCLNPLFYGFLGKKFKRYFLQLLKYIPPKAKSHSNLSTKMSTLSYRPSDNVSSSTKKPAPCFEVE
Description: Inhibition of type 1 angiotensin 2 receptor at 10 uM.

The target of series [15] is T5, 5-hydroxytryptamine receptor 2C (Rattus norvegicus, UniProt P08909).
T5 sequence (P08909 whole entry): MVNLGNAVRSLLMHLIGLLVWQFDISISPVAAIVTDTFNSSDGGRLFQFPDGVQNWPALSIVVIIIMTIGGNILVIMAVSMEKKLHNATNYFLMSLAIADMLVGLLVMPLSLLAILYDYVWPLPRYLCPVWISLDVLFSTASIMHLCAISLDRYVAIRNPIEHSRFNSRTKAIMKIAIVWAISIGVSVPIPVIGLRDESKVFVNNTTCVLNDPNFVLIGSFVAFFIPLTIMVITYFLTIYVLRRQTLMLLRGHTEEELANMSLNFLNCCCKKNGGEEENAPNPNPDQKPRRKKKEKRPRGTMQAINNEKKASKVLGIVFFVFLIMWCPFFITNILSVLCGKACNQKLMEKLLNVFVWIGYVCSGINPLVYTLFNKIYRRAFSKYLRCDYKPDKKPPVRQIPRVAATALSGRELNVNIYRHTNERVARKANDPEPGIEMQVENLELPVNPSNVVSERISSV
Description: Activity against recombinant rat 5HT2C mediated intracellular calcium mobilization by FLIPR in SR3T3 cells.

In series [16] the target is Alpha-2B adrenergic receptor (Homo sapiens, UniProt P18089). Nature of the series: Activity at adrenergic alpha-2B receptor expressed in opposum kidney OK cell by adenylyl cyclase assay. Type of series: functional, cell-based.
Series [17] can be described thus: Half life in phosphate buffer at pH 7.4 in 25 degC. The format is ADME.
Series [18] addresses T2, 5-hydroxytryptamine receptor 1A (Homo sapiens). Description: Inhibition of forskolin activated adenylate cyclase at 100 nM. Type of series: functional.
The target in series [19] is Serotonin 3 (5-HT3) receptor. Description: Inhibitory activity against 5HT3 receptor. Type of series: protein-complex assay, Homo sapiens.
In series [20] the target is Glutamate [NMDA] receptor (Homo sapiens) (UniProt Q05586+Q12879+Q13224+O15399+O60391+Q14957+Q8TCU5). Description: Inhibition of MK-801 site of glutamate receptor at 100 nM. The format is protein-complex assay.

Sigma non-opioid intracellular receptor 1 (Homo sapiens), sequence (Q99720 whole entry): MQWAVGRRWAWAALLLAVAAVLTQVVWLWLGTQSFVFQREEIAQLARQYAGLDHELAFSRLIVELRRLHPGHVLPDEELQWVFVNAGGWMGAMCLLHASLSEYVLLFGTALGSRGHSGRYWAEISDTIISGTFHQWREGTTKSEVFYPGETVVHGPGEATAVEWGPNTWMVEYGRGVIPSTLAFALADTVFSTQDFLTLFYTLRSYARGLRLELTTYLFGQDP
Voltage-dependent N-type calcium channel subunit alpha-1B (Homo sapiens), sequence (Q00975 whole entry, looked up): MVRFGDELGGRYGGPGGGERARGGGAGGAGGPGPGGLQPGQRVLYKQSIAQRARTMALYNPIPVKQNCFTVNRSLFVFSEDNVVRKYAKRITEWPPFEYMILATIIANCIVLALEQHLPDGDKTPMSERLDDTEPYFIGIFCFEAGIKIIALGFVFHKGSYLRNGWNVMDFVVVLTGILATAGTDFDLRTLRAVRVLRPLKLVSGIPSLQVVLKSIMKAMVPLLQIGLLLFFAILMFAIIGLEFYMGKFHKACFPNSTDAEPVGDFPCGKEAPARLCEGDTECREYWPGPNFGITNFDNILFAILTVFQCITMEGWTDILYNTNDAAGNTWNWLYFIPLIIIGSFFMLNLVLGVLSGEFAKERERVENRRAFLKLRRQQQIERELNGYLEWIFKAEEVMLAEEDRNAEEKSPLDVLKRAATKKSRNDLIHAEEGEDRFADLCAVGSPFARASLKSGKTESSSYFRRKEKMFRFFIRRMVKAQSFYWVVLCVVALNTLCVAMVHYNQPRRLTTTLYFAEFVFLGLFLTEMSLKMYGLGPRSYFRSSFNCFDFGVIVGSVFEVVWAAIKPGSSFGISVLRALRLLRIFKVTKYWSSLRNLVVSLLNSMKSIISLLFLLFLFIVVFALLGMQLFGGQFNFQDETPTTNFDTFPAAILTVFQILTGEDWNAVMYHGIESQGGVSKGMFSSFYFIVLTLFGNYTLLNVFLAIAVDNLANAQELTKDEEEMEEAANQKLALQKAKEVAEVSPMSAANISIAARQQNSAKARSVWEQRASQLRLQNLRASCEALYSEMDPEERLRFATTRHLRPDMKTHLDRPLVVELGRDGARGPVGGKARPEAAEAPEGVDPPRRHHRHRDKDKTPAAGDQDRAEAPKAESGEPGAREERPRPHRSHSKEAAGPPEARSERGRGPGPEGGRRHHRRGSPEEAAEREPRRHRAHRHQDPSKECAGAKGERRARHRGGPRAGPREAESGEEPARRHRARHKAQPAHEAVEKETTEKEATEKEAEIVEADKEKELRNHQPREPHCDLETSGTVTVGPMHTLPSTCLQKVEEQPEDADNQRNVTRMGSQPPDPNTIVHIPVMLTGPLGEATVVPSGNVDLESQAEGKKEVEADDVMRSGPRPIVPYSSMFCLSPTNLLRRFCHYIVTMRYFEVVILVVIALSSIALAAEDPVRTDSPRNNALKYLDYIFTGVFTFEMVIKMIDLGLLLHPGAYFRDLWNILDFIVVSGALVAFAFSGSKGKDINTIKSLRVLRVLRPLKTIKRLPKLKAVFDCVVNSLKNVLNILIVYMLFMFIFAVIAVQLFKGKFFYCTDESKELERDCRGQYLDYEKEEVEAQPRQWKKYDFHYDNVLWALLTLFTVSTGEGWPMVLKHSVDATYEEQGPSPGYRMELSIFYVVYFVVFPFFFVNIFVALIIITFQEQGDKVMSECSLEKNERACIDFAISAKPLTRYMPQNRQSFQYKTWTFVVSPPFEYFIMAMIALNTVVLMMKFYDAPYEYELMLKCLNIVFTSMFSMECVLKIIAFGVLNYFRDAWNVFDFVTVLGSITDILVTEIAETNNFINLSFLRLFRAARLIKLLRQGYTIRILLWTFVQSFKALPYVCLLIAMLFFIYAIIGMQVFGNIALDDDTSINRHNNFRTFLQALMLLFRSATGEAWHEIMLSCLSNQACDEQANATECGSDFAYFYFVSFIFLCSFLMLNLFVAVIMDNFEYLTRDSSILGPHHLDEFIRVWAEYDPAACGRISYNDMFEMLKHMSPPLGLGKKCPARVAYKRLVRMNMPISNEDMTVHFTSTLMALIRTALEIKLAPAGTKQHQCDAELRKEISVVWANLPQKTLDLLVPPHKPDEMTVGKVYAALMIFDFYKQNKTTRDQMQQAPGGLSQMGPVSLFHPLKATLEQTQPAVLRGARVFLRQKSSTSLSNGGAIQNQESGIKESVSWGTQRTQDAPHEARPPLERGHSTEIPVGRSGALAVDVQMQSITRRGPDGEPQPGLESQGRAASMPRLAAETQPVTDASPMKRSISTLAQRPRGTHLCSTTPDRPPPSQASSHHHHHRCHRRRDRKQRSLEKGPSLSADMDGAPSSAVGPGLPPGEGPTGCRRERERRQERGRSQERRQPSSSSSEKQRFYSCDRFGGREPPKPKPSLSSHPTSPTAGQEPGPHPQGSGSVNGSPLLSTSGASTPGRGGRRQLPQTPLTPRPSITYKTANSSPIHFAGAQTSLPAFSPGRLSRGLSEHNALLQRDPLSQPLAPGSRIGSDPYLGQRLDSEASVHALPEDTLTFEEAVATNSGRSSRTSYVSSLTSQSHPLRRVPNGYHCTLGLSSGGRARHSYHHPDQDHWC
Sodium-dependent noradrenaline transporter, sequence (P23975 whole entry): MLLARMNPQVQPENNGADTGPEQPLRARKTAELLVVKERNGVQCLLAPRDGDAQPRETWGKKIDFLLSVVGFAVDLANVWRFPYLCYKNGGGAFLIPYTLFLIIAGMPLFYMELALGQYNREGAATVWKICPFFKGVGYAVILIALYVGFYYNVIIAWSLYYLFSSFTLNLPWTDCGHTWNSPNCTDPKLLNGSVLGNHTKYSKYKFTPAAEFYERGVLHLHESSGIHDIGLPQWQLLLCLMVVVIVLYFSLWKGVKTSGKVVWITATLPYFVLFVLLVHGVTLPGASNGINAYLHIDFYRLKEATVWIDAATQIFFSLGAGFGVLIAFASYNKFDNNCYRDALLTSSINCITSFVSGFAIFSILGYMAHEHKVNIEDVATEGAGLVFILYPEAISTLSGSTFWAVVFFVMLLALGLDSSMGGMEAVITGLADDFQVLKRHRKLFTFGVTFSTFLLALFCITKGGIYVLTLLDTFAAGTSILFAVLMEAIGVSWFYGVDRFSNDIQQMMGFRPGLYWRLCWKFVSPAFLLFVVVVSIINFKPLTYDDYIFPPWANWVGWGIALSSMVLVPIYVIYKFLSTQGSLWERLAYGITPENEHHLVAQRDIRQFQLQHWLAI
Leukotriene B4 receptor (Homo sapiens), sequence (Q15722 whole entry, looked up): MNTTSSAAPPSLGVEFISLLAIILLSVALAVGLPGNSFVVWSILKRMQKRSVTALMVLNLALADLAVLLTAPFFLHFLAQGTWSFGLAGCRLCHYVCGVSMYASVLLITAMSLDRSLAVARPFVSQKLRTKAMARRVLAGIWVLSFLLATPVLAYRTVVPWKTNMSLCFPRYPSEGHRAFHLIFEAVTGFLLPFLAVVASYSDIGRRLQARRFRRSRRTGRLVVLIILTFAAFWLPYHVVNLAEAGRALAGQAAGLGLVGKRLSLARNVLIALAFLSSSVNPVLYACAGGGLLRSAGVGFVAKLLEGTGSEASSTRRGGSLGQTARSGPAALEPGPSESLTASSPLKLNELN
Leukotriene B4 receptor (Homo sapiens), sequence (Q9NPC1 whole entry, looked up): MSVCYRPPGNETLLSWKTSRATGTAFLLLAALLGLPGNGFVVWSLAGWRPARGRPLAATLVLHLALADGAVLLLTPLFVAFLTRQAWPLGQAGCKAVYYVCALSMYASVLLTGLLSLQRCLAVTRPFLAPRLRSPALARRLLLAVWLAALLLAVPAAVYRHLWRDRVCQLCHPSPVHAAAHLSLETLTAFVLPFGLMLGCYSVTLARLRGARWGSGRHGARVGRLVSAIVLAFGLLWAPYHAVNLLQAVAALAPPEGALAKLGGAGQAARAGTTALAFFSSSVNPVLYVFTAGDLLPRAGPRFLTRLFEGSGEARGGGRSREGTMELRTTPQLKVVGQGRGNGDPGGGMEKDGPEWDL
5-hydroxytryptamine receptor 1D, sequence (P28221 whole entry): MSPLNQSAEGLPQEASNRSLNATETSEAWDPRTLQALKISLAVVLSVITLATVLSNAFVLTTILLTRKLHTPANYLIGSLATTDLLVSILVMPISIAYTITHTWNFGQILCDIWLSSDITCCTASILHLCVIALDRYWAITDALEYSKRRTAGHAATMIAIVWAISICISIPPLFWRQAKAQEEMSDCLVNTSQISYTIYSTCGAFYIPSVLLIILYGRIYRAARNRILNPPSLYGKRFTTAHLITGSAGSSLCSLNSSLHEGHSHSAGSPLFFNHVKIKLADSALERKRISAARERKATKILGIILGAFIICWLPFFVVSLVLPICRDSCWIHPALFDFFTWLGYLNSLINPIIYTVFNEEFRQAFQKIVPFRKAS
Alpha-2B adrenergic receptor, sequence (P18089 whole entry): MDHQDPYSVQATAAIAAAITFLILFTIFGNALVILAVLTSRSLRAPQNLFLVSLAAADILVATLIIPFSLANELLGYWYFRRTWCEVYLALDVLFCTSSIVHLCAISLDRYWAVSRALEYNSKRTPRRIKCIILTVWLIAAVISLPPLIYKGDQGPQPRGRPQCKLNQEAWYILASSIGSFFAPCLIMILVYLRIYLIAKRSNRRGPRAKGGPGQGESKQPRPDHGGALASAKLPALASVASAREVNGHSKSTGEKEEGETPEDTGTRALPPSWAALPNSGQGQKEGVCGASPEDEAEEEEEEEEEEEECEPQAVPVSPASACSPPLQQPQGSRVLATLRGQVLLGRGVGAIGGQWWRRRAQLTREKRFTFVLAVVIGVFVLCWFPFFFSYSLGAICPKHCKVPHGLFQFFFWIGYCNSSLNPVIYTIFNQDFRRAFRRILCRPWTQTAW

Take `C[C@H](N)Cn1ncc2ccc(O)cc21`: the Ki in series [1] is 0.141 µM; in series [11] it was 7.87 µM; in series [19] it was over 10 µM. Moreover, the inhibition in series [2] was 4.1%; in [4] it was -7.73%; in series [5], 2.48%; in [6], 15.4%; in [7] it was 0.28%; in series [8] it was 15.8%. Besides, the inhibition in series [9] is 22.8%; in series [12] it was 42.6%; in series [13], 9.45%; in series [14], 6.55%; in series [18], -2.24%; in series [20] it was 11.4%. Further, the inhibition at 0.001 µM in series [3] is -14.4%; in [10], 2.17%. Further, the EC50 in [15] was 0.0037 µM; in series [16], 3.05 µM. In series [17], this compound showed a T1/2 of 4.6 yr.
